Earlier results on one compound are cited in patent EP4643845A1, “COSMETIC COMPOSITION” (Shiseido Company, Ltd., priority 2022, dated 2024).

*1 amine or outer side, *2 acyl side, *3 side chain or, on linkers, in order; H or OH if unused. Where a SMILES comes first, the peptide text is derived from it. Bridges are numbered along the chain shown (N, C = ends). X1 = CC(C)CCCCCCCCCC(CC(=O)[*:1])O[*:2]

The conditions of the data set: according to relevant reports.

`CC(C)CCCCCCCCCC1CC(=O)NC(CCC(=O)O)C(=O)NC(CC(C)C)C(=O)NC(CC(C)C)C(=O)NC(C(C)C)C(=O)NC(CC(=O)O)C(=O)NC(CC(C)C)C(=O)NC(CC(C)C)C(=O)O1` (stereo not shown) [formula (1)] (ELLVDLL; linker N-C via X1; configuration not given here): the “critical micelle concentration (CMC)” value was 0.0003 % (mass fraction).
